Earlier results, collected in patent US20050148561A1, “Novel triterpene derivatives, preparation thereof and use thereof” (Panacos Pharmaceuticals, Inc., priority 2003, published 2005).
Read-outs that look alike come from different tables or passages of the source.

Test system: HIV-1

In the case of `CC(C)[C@@H]1CC[C@]2(C(=O)O)CC[C@]3(C)C(CCC4[C@@]5(C)CC[C@H](O)C(C)(C)C5CC[C@]43C)C12` (stereo partly shown) [dihydrobetulinic acid], the T.I. (H9 lymphocyte cells) is given as 14 and the EC50 (unit inferred, read-out: EC50, anti-HIV activity) is given as 0.9 µM.
In the case of `CC(=O)[C@@H]1CC[C@]2(C(=O)O)CC[C@]3(C)[C@H](CC[C@@H]4[C@@]5(C)CC[C@H](O)C(C)(C)[C@@H]5CC[C@]43C)[C@@H]12` [platanic acid], the T.I. (H9 lymphocyte cells) is listed as 14 and the EC50 (H9 lymphocyte cells, read-out: EC50, inhibitory activity against HIV-1 replication) is listed as 6.5 µM.
